Assay results: ChEMBL document CHEMBL4715909, “Identification of Plasmodium falciparum heat shock 90 inhibitors via molecular docking” (Bioorg Med Chem Lett, 2021)

Assays:
Plasmodium falciparum [1] = assay: Antimalarial activity against Plasmodium falciparum 3D7 assessed as reduction in parasitic growth; type: functional, organism-based
BJ [2] = assay: Cytotoxicity against human BJ cells assessed as reduction in cell viability; type: cell-based
Plasmodium falciparum [3] = assay: Antimalarial activity against Plasmodium falciparum 3D7 assessed as reduction in parasitic growth at 16 uM relative to control; type: functional; set-up: scale not given: the % may be the effect or the level left
BJ [4] = assay: Cytotoxicity against human BJ cells assessed as reduction in cell viability at 58 uM by relative to control; type: cell-based

SMILES | EC50 (Plasmodium falciparum [1]) [µM] | EC50 (BJ [2]) [µM] | Activity (Plasmodium falciparum [3]) [%] | Activity (BJ [4]) [%]
O=C(c1cccc(S(=O)(=O)N2CCc3ccccc32)c1)N1CCC(c2nnc3ccccn23)CC1 | > 18 | > 24 |  | 
O[C@@H](c1cc(C(F)(F)F)nc2c(C(F)(F)F)cccc12)[C@H]1CCCCN1 [(S,R)-MEFLOQUINE] |  |  | 100 | 
O=C(c1cccc(Nc2nc3ccccc3n3nnnc23)c1)N1CCc2ccccc2C1 | 3.44 | > 24 |  | 
O=C(c1ccc2noc(-c3ccccc3)c2c1)N1CCC[C@H](c2nnc3ccccn23)C1 | > 18 | > 24 |  | 
Cc1cccc(-c2nc(C3CCN(C(=O)[C@H]4CC(=O)N(c5ccc(C)c(C)c5)C4)CC3)no2)c1 | 12.1 | > 24 |  | 
O=C1CN(C(=O)CN2C[C@H](C(=O)N3CCCCC3)Oc3ccccc32)c2ccccc2N1 | > 18 | > 24 |  | 
Cc1nnc(-c2nn(-c3ccc(C(=O)N4CCC[C@H](C)C4)cc3)c(-c3ccc(F)cc3)c2C)o1 | 5.5 | > 24 |  | 
c1ccc(-c2nnn3c2nc(N2CCN(Cc4ccc5c(c4)OCO5)CC2)c2ccccc23)cc1 | 17 | > 24 |  | 
O=C(CCn1c(=O)c2ccccc2n(Cc2ccccc2F)c1=O)N1CCc2ccccc2C1 | > 18 | > 24 |  | 
O=C(Cc1ccc2c(c1)OCO2)N1CCC(c2nc(=O)c3nnn(Cc4ccccc4F)c3[nH]2)CC1 | 12.7 | > 24 |  | 
O=C(N[C@H]1CCc2ccccc21)C1CCN(c2ncccc2-c2nc(-c3ccccc3)no2)CC1 | 1.11 | > 24 |  | 
O=C(NCc1ccc2c(c1)OCO2)C1CCN(c2ncnc3onc(-c4cccc(F)c4)c23)CC1 | 0.98 | > 24 |  | 
Cc1c(C(=O)Nc2ccc3ccc(=O)oc3c2)nnn1-c1ccc2noc(-c3ccccc3)c2c1 | 15.7 | > 24 |  | 
CC(=O)[C@]1(O)Cc2c(O)c3c(c(O)c2[C@@H](O[C@H]2C[C@H](N)[C@H](O)[C@H](C)O2)C1)C(=O)c1ccccc1C3=O [IDARUBICIN] |  |  |  | 100
